Consider seven compounds from patent US20190160058A1, “METHODS OF TREATMENT WITH SELECTIVE CB2 RECEPTOR AGONISTS” (Arena Pharmaceuticals, Inc., priority 2016, published 2019).

Entries after “also recorded” stand apart in the source; their conditions may differ.

Series [1] deals with rats following ligation of spinal nerves. The note with it: cited from earlier work.
In series [2] the test system is models of inflammatory pain in rodents. The note with it: systemic delivery; cited from earlier work.
The subject of another series is preclinical animal model. The series is described as follows: preclinical animal model studies, cardiovascular effects. It is filed as in vivo.
For another series, the target named is rat CB2 receptor (Rattus norvegicus, UniProt Q9QZN9). The series is described as follows: CB2 receptor internalization efficacy relative to CP55,940. It is filed as cell-based. The source says: (§1) In certain instances, the CB2 receptor agonist compounds identified using the HTRF® assay, the PathHunter-arrestin assay, and the radioligand binding assay can be tested for CB2 receptor internalization to select those agonists that induce robust internalization of the receptor in order to maintain a sufficient level of signaling for sustained in vivo efficacy. In certain embodiments, such agonists are preferred in the methods described herein.
Sequence of rat CB2 receptor (Q9QZN9 whole entry): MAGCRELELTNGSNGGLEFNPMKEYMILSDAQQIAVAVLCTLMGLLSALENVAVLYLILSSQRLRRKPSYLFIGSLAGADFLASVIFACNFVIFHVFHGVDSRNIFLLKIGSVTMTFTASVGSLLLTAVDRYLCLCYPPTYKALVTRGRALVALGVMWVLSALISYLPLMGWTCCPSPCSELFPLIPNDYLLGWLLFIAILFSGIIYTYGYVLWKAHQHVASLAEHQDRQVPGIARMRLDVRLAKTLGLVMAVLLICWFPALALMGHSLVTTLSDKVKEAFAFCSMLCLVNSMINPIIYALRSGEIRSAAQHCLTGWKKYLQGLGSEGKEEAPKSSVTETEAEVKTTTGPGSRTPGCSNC
(§2) Receptor internalization can be measured using a number of methods, including but not limited to measuring a loss of labeled receptor from the cell surface (e.g., using flow cytometry) measuring the appearance of receptors internalized in the cell (e.g., in characteristic punctate intracellular vesicles), and/or measuring the return of receptors recycled to the cell surface. For example, the number, density, and/or staining intensity of granules in the cell can be quantified. Receptor internalization can be measured using any appropriate method known to those of skill in the art. […]

Series [3] addresses T1, CB2 receptor (Homo sapiens, UniProt P34972). Described as above. In kind it is cell-based.
Description: as §1, §2

Series [4] addresses T1, CB2 receptor. The series can be described thus: CB2 receptor agonism. In kind it is cell-based. The source says: Other CB2 receptor agonist compounds can be identified e.g., using the Homogeneous Time-Resolved Fluorescence (HTRF®) Assay for direct cAMP measurement (Gabriel et al., ASSAY and Drug Development Technologies, 1:291-303, 2003) (see, e.g., Example 2 of WO2011/025541). Compounds can be screened for agonism of the CB2 receptor (e.g., human CB2 receptor) using the HTRF® assay for direct cAMP measurement (assay kit sold by Cisbio-US, Inc., Bedford, Mass.; Catalog #62AM4PEC) in recombinant CHO-K1 cells stably transfected with the CB2 receptor. […] The specific signal (i.e., fluorescence resonance energy transfer, FRET) is inversely proportional to the concentration of unlabeled cAMP in the standard or sample. An agonist of the CB2 receptor is detected in the HTRF® assay for direct cAMP measurement when a compound decreases cAMP concentration. […]
CB2 receptor agonist compounds can also be identified using the DiscoveRx PathHunter β-arrestin assay which measures the β-arrestin binding to the CB2 receptor upon its activation (see, e.g., Example 3 of WO2011/025541). […] Binding of β-arrestin to the activated GPCR causes the complementation of the two enzyme fragments, forming an active β-galactosidase enzyme which can be measured using the chemiluminescent PathHunter Flash Detection Kit (DiscoveRx, Fremont, Calif.: catalog #93-0001).

Series [5] relates to paclitaxel-induced neuropathic pain model. The series is described as follows: paclitaxel-induced neuropathic pain model. Conditions: in vivo.
The subject of series [6] is osteoarthritis pain model. The series is described as follows: osteoarthritis pain model. It is filed as in vivo.
For series [7], the system named is painful peripheral diabetic neuropathy model. The series can be described thus: painful peripheral diabetic neuropathy model. Conditions: in vivo.
Series [8] relates to healthy human subjects. The series is described as follows: phase 1b multiple ascending dose clinical trial. It is filed as in vivo. As for the experimental part:
A phase 1b randomized, double-blind, placebo-controlled multiple ascending dose clinical trial was performed in 36 healthy human subjects to assess the safety, tolerability, and pharmacokinetics of APD371 (Compound B). Doses of 50 mg three times daily (TID), 100 mg TID, and 200 mg TID were administered for 10 days. Subjects were in the clinic for approximately 17 days (referred to as Day −2 to Day 15). Study medication (APD371 or placebo) was administered TID on Days 1-10, and once on Day 11. Each cohort included 12 human subjects, nine of whom were administered APD371 and three of whom were administered placebo.
(§3) Vital signs were measured for blood pressure and heart rate in the supine position after resting for five minutes. 12-lead electrocardiograms were used to measure RR, PR, QRS, QT, QTc, QTcB, and QTcF in the recumbent position after resting for 10 minutes. 5-lead electrocardiograms were used for continuous telemetry, with measurements taken during the last five minutes of a resting period of 14 minutes±1 minute in the supine position. Baseline measurements were taken prior to dosing.

Series [9] addresses T1, CB2 receptor. The series can be described thus: internalization of the CB2 receptor in a cell. It is filed as cell-based.
Description: In some embodiments, the selective CB2 receptor agonist increases internalization of the CB2 receptor in a cell to at least 75%, at least 80%, at least 85%, at least 90%, at least 95%, at least 96%, at least 97%, at least 98%, or at least about 99% the level of internalization that would occur if the cell were contacted with CP55,940. In some embodiments, the CB2 receptor agonist that increases internalization of the CB2 receptor to at least 90% of CP55,940 is selected from: Compound B, Compound E, Compound G, and Compound H. CP55,940 has the following chemical structure: […]
as §2

Series [10] relates to human CB2 receptor versus the human CB1 receptor. The series can be described thus: selectivity for the human CB2 receptor versus the human CB1 receptor. As for the experimental part: In some embodiments, an agonist compound that is used in the methods described herein has selectivity for the CB2 Receptor. In some embodiments, selectivity refers to the relative in vitro potency of a compound for the CB2 receptor and another receptor. For example, in some embodiments, selectivity refers to the relative in vitro potency of a compound for the CB2 receptor versus the CB1 receptor. In some embodiments, in vitro potency is measured using a second messenger assay. In some embodiments, in vitro potency is measured using a cAMP assay. In some embodiments, selectivity is determined by comparing data generated using a β-arrestin assay. In some embodiments, selectivity is determined by comparing data generated from a GTP-yS binding assay. In some embodiments, selectivity is determined by comparing data generated from a reporter gene assay. In some embodiments, selectivity is determined by comparing data generated for a biomarker. In some embodiments, in vitro potency is quantified as EC50. In some embodiments, selectivity refers to the relative binding affinity of an agonist for the CB2 receptor and another receptor. In some embodiments, binding affinity is quantified as Ki.

Series [11] relates to healthy human subjects. The series can be described thus: phase 1a single ascending dose clinical trial. In kind it is in vivo. As for the experimental part:
A phase 1a randomized, double-blind, placebo-controlled single ascending dose clinical trial was performed in 56 healthy human subjects to assess the safety, tolerability, and pharmacokinetics of APD371 (Compound B). Doses of 10 mg, 20 mg, 30 mg, 60 mg, 120 mg, 250 mg, and 400 mg were administered. Subjects were in the clinic for approximately 9 days (referred to as Day −2 to Day 7). Study medication (APD371 or placebo) was administered on Day 1. Each cohort included eight human subjects, six of whom were administered APD371 and two of whom were administered placebo.
as §3

The test system of series [12] is guinea pig vagus nerve preparations. Conditions: in vitro; cited from earlier work.
Series [13] deals with human vagus nerve preparations. The note with it: in vitro; cited from earlier work.
The subject of the next series is RPE cells. Conditions: cited from earlier work.
A further series relates to human skin. Conditions: topical administration; cited from earlier work.
Series [14] deals with bovine nasal cartilage explants. The note with it: in vitro; cited from earlier work.
Another series has as its system ApoE knockout mice. The note with it: in vitro and in vivo; cited from earlier work.
A further series concerns EAE mouse model. The note with it: in vivo; cited from earlier work.
Setting [15] is: 50, 100, 200 mg TID for 10 days.

T1 sequence (P34972 whole entry): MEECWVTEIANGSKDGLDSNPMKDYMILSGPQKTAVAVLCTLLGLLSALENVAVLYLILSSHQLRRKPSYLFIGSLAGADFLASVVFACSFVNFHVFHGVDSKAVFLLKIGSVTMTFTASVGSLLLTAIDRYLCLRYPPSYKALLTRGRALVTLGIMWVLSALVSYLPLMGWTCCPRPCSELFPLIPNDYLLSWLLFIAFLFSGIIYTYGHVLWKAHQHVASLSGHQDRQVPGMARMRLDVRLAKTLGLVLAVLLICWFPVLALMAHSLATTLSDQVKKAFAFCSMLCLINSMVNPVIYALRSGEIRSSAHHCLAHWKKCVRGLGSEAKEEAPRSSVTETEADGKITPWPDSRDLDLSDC

With `COc1ccc(C(=O)c2c(C)n(CCN3CCOCC3)c3cc(I)ccc23)cc1` [AM630], the “effect on the AM1241 reversal of hypersensitivity” value in series [1] (rat, in vivo) was “inhibited by treatment with the CB2-selective antagonist AM630”.

As to `CN1CCCCC1Cn1cc(C(=O)c2cc([N+](=O)[O-])ccc2I)c2ccccc21` (centres unmarked) [AM1241], the “tactile and thermal hypersensitivity” value in series [1] (local (subcutaneous) or systemic administration) was “reverses tactile and thermal hypersensitivity”. In series [2], the hyperalgesia result was “suppresses hyperalgesia”.

Consider `CC(C)(C)[C@@H](CO)NC(=O)c1nn(-c2c[n+]([O-])ccn2)c2c1C[C@@H]1C[C@H]21` [APD371, (1aS,5aS)-2-(4-Oxy-pyrazin-2-yl)-1a,2,5,5a-tetrahydro-1H-2,3-diaza-cyclopropa[a]pentalene-4-carboxylic Acid ((S)-1-Hydroxymethyl-2,2-dimethyl-propyl)-amide], for which, in the series on preclinical animal model, the cardiovascular effects entry is “Cardiovascular effects were not seen”. Further, at rat CB2 receptor, the “receptor internalization efficacy relative to CP55,940” value is given as 105%. The “receptor internalization efficacy relative to CP55,940” value at CB2 receptor [3] came out at 96%. For the same compound, the “agonist efficacy at the CB2 receptor” value at CB2 receptor [4] was “full CB2 receptor agonist”. In [5], the “efficacy in model of paclitaxel-induced neuropathic pain” value was “sustained efficacy”. In addition, the “efficacy in model of osteoarthritis pain” value in [6] (in vivo) is “sustained efficacy”. In addition, the “duration of in vivo efficacy following dosing” value in [6] (osteoarthritis pain model) is on record as “maintained in vivo efficacy for four hours following dosing”. Also, the plasma concentrations result in series [6] (osteoarthritis pain model, following dosing) is recorded as “rapidly declining plasma concentrations”. Also, the “efficacy in model of painful peripheral diabetic neuropathy” value in series [7] is on record as “sustained efficacy”. Besides, in the series on healthy human subjects [8] (setting [15]), the exposure entry is “Dose-responsive exposure was observed”; the “most common adverse events” value is “headache and nausea”; the serious adverse events entry was “no serious adverse events reported”; the “severity of adverse events” value is on record as “mild”. Further, the tolerability result in the series on healthy human subjects [8] (setting [15]) is on record as “well tolerated with multiple dosing”. Besides, the “drug levels relative to those needed to stimulate the CB2 receptor” value in the series with healthy human subjects [8] (all doses) is on record as “well above those needed to stimulate the CB2 receptor”. In the series with healthy human subjects [8] (high-dose group), the discontinuations entry was “one discontinuation in the high-dose group due to an adverse event of mild thirst and somnolence”. Besides, in the series on healthy human subjects [8] (multiple ascending dose), the “change in blood pressure” value is listed as “asymptomatic reductions” and the “change in heart rate” value was “asymptomatic reductions”. Besides, the “internalization of the CB2 receptor into cells” value on CB2 receptor [9] is listed as “high level of internalization”. For the same compound, the “selectivity for the human CB2 receptor versus the human CB1 receptor” value in series [10] is reported as > 1,000 fold. Moreover, in the series on healthy human subjects [11] (single ascending dose), the “systolic and diastolic blood pressure compared to baseline” value was “Variations were also seen”. Besides, the “mean change in heart rate compared to baseline” value with healthy human subjects [11] (single ascending dose, highest doses) is recorded as “increase in heart rate was seen at the highest doses; also recorded: asymptomatic mean increase in heart rate”. For the same compound, in the series with healthy human subjects [11] (single doses 10 mg to 400 mg), the exposure entry is “Dose-responsive exposure was observed” and the tolerability entry is listed as “well tolerated”.

As for `CCCCCCC(C)(C)c1ccc([C@@H]2C[C@H](O)CC[C@H]2CCCO)c(O)c1` [CP55,940], the “capsaicin-, PGE2-, and hypertonic saline-induced depolarization” value was “reduces capsaicin-, PGE2-, and hypertonic saline-induced depolarization” in series [12]; “reduces capsaicin-, PGE2-, and hypertonic saline-induced depolarization” in series [13]. Further, the “protection from oxidative damage” value with RPE cells is “significantly protects RPE cells from oxidative damage”.

Consider `COc1ccc2c(c1)c(CCN1CCOCC1)c(C)n2C(=O)c1cccc(Cl)c1Cl` [GW405833], for which the “hypersensitivity to mechanical stimuli” value in series [1] (administered systemically) was “significantly reverses hypersensitivity to mechanical stimuli”.

For the compound `CCCCCCC(C)(C)c1cc(O)c2c(c1)OC(C)(C)[C@@H]1CC=C(CO)C[C@@H]21` [HU-210], the histamine-induced responses result with human skin is listed as “reduces these histamine-induced responses”. For the same compound, the “IL-1alpha-stimulated proteoglycan and collagen degradation” value in [14] is “significantly inhibit”.

Regarding SR144528, in the series on ApoE knockout mice, the “blockade of the THC effect on atherosclerosis” value was “completely blocks this effect”. Moreover, in the series with EAE mouse model, the “blockade of the WIN 55212-2 effect on leukocyte rolling and adhesion” value is reported as “blocked by the CB2-selective antagonist SR144528”.
